Like-named read-outs stand apart in the source and are kept apart here. *1 amine or outer side, *2 acyl side, *3 side chain or, on linkers, in order; H or OH if unused. Where a SMILES comes first, the peptide text is derived from it. [ ]: non-standard residue; d: D form. The star is where a group is joined. X9 = O=C(CN1CC2CC(C1)N2[*:1])[*:2]; X4 = O=C(O)CN1CC2CC(C1)N2*; Ac5c = NC1(C(=O)O)CCCC1
Assays:
[1] = target: T1, Kappa (κ) opioid receptors (KOR) (Homo sapiens, UniProt P41145); assay: In vitro KOR agonistic activity, cAMP based functional assay; type: cell-based
T1 construct: host or cells: unnamed cells grown in Ham's F-12 medium
T1 sequence (P41145 whole entry): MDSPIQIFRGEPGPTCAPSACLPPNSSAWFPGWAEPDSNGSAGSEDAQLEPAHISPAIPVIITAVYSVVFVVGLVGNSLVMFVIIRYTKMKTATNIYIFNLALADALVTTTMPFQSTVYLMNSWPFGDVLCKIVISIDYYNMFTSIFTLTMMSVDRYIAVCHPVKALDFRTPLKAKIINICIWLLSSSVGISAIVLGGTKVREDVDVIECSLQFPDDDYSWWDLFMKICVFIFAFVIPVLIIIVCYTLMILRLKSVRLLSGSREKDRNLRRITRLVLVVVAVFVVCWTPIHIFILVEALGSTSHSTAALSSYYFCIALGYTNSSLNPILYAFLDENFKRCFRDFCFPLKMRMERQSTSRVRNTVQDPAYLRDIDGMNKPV
Procedure: a) In Vitro (EC50) Determination, Using cAMP Based Functional Assay:
In vitro, KOR agonistic activity of test compounds were assessed using cAMP based functional assay. A 96-well plate was seeded at the density of 30,000 cells/well in 100 μl/well of complete Ham's F-12 medium. After seeding, the plates were incubated overnight at 37° C., 5% CO2, in CO2 Incubator. Overnight medium was discarded and plate washed with 100 μl/well of sterile PBS. Then 90 μl of 0.1 mM IBMX containing 0.5% Fatty acid free BSA in plain HamsF12 was added to each well. This was allowed to incubate for 30 minutes at 37° C., 5% CO2. Forskolin 20 μM in 0.5% Fatty acid free BSA was added to each well and allowed to incubate at room temperature for 5 minutes. Dilution of test compounds was made at 200× in DMSO and then diluted 1:10 times in BSA containing plain HamsF12. Agonist (test compounds, in 10% DMSO) was added to each well (5 μl) and allowed to incubate for 20 minutes at 37° C., 5% CO2. After 20 minutes, media was aspirated from the wells and the wells were washed with 1×PBS. Cell lysis buffer 4× (Arbor Assays, Cat # X074-60 ML) was diluted 1:4 in MilliQ and 90 μl of this buffer was added per well. Cells were allowed to shake at 500 rpm, room temperature for 20 minutes. Cell lysate was collected in 1.5 ml eppendorf tubes and centrifuged at 13.2 k rpm, 4° C. for 15 minutes. 50 μl of the supernatant of cell lysate was then used for cAMP estimation by cAMP direct ELISA kit (Arbor Assays, Cat # K019-H5).

[2] = test system: acetic acid induced writhing; assay: Acetic acid-induced writhing model (antinociceptive activity); type: in vivo; conditions: acetic acid induced pain model, ICR mice (n = 6), iv
Procedure: In Vivo (ED50) Determination, Using Acetic Acid-Induced Writhing Model
The acetic acid induced writhing assay can detect antinociceptive activity for opioid drug, acting at peripheral, spinal and supraspinal levels. Animals were fasted 12 to 16 h prior testing. The nociceptive response (abdominal contractions or writhes) was induced by diluted acetic acid (0.6%, 10 ml/kg, for mice and 2.5%, 0.5 ml/rat) administered intraperitoneally (i.p.) at time 0 min.
In mouse experiments, compounds were administered orally, intravenously (i.v.) or subcutaneously (s.c.). To determine the antinociceptive potency and efficacy, full dose-response curves were constructed with test compounds, given 5 min prior to acetic acid administration. The duration of action was determined by using increasing pretreatment time (5, 60, and 120 min.), prior to acetic acid administration, for a sub-maximally effective dose defined during the dose-response curve study. In rat experiments, compounds were administered orally, intravenously (i.v.) or subcutaneously (s.c.), 15 min prior to acetic acid administration. The number of writhes was counted over the 15 min period following acetic acid administration. A writhe is defined as a constriction of the abdominal area, often with extension of the hind legs. Percentage maximum possible effect (MPE) was calculated as: % MPE=100−[(No. of writhes in test compound treated animal/No. of writhes in vehicle treated animal)]×100. ED50 dose was determined using GraphPad Prism.

[3] = cAMP based functional assay, forskolin stimulated, read-out: In-vitro EC50
[4] = refers to Table-4, read-out: in vitro KOR agonistic activity EC50

Row | SMILES | EC50 [1, 3] [nM] | EC50 [1, 4] [nM] | In-vivo ED50 [2] [mpk]
1 | CC(C)CC(NC(=O)C(Cc1ccccc1)NC(=O)C(N)Cc1ccccc1)C(=O)NC(CCCCN)C(=O)N1CC2=C(CN(CC(N)=O)C2)C1 (stereo not shown) [Compound 5] | 0.009 | < 0.1 | 0.07
2 | CC(C)CC(NC(=O)C(Cc1ccccc1)NC(=O)C(N)Cc1ccccc1)C(=O)NC(CCCCN)C(=O)N1CC2CNCC2C1 (stereo not shown) [Compound 13] | – | – | 1
3 | CCOC(=O)CN1CC2CN(C(=O)C(CCCCN)NC(=O)C(CC(C)C)NC(=O)C(Cc3ccccc3)NC(=O)C(N)Cc3ccccc3)CC2C1 (stereo not shown) [Compound 15] | 0.007 | < 0.1 | 0.1
4 | CC(C)CC(NC(=O)C(Cc1ccccc1)NC(=O)C(N)Cc1ccccc1)C(=O)NC(CCCCN)C(=O)N1CC2CN(CC(=O)O)CC2C1 (stereo not shown) [Compound 16] | 0.004 | < 0.1 | 0.1
5 | CC(C)CC(NC(=O)C(Cc1ccccc1)NC(=O)C(N)Cc1ccccc1)C(=O)NC(CCCCN)C(=O)N1CC2CN(CCO)CC2C1 (stereo not shown) [Compound 18] | – | – | 1
6 | CC(C)CC(NC(=O)C(Cc1ccccc1)NC(=O)C(N)Cc1ccccc1)C(=O)NC(CCCCN)C(=O)N1CC2CN(S(C)(=O)=O)CC2C1 (stereo not shown) [Compound 19] | – | – | 0.28
7 | CCOC(=O)CN1CC2CC(C1)N2C(=O)C(CCCCN)NC(=O)C(CC(C)C)NC(=O)C(Cc1ccccc1)NC(=O)C(N)Cc1ccccc1 (stereo not shown) [Compound 35] | 0.01 | < 0.1 | 0.03
8 | CC(C)CC(NC(=O)C(Cc1ccccc1)NC(=O)C(N)Cc1ccccc1)C(=O)NC(CCCCN)C(=O)N1C2CC1CN(CC(=O)O)C2 (stereo not shown) [Compound 36] | 0.015 | < 0.1 | 0.04
9 | CC(C)CC(NC(=O)C(Cc1ccccc1)NC(=O)C(N)Cc1ccccc1)C(=O)NC(CCCCN)C(=O)N1C2CC1CN(CC(N)=O)C2 (stereo not shown) [Compound 37] | 0.083 | < 0.1 | 0.08
10 | CC(C)CC(NC(=O)C(Cc1ccccc1)NC(=O)C(N)Cc1ccccc1)C(=O)NC(CCCCN)C(=O)N1C2CC1CN(CCO)C2 (stereo not shown) [Compound 38] | – | – | 0.04
11 | CC(C)CC(NC(=O)C(Cc1ccccc1)NC(=O)C(N)Cc1ccccc1)C(=O)NC(CCCCN)C(=O)N1C2CC1CN(S(C)(=O)=O)C2 (stereo not shown) [Compound 39] | – | – | 0.18
12 | NCCCCC(NC(=O)C1(NC(=O)C(Cc2ccccc2)NC(=O)C(N)Cc2ccccc2)CCCC1)C(=O)N1C2CC1CN(CC(=O)O)C2 (stereo not shown) [Compound 42] (H-FF[Ac5c]K-X4; configuration not given here) | – | – | 0.23
13 | CC(C)CC(NC(=O)C(Cc1ccccc1)NC(=O)C(C)(N)Cc1ccccc1)C(=O)NC(CCCCN)C(=O)N1CC2CC(C1)N2CC(=O)O (stereo not shown) [Compound 57] | – | – | 0.26
14 | CC(C)CC(NC(=O)C(Cc1ccccc1)NC(=O)C(N)Cc1ccccc1)C(=O)NC(CCCCN)C(=O)N1CC2CC1CN2Cc1ccccc1 (stereo not shown) [Compound 62] | – | – | 0.31
15 | CC(C)CC(NC(=O)C(Cc1ccccc1)NC(=O)C(N)Cc1ccc(O)cc1)C(=O)NC(CCCCN)C(=O)N1C2CC1CN(CC(=O)O)C2 (stereo not shown) [Compound 90] (H-YFLK-X4; configuration not given here) | – | – | 0.98
16 | CC(C)CC(NC(=O)C(Cc1ccccc1)NC(=O)C(N)Cc1ccccc1)C(=O)NC(CCCCN)C(=O)N1C2CC1CN(C(=O)CCCCCN)C2 (stereo not shown) [Compound 93] | – | – | 0.11
17 | CC(C)CC(NC(=O)C(Cc1ccccc1)NC(=O)C(N)Cc1ccccc1)C(=O)NC(CCCCN)C(=O)N1C2CC1CN(C(=O)C(N)CO)C2 (stereo not shown) [Compound 97] | – | – | 0.42
18 | CC(C)CC(NC(=O)C(Cc1ccccc1)NC(=O)C(N)Cc1ccccc1)C(=O)NC(CCCCN)C(=O)N1C2CC1CN(CC(=O)NC(CCC(=O)O)C(=O)O)C2 (stereo not shown) [Compound 104] (H-FFLK[X9]E-OH; configuration not given here) | – | – | 0.07
19 | CC(C)CC(NC(=O)C(Cc1ccccc1)NC(=O)C(N)Cc1ccccc1)C(=O)NC(CCCCN)C(=O)N1C2CCC1CC(O)C2 (stereo not shown) [Compound 105] | 0.002 | – | –
